Data set [1] concerns Treg102 cells. Briefly: Proliferation and cytotoxicity of CFSE-labeled Treg cells (FACS). It is filed as cell-based, human. To be noted: 3 days. Here is the method:
The expression of CD4, CD25 and GITR on Treg cells was determined by FACS analysis after staining with specific antibodies (purchased from R&D Systems and BD Biosciences). To isolate naturally occurring CD4^+ CD25^+ Treg cells, CD4^+ T cells were stained with anti-CD4 and anti-CD25 antibodies conjugated to either PE or FITC. After washing, the cells were sorted by FACSARIA into CD4^+ CD25^+ and CD4^+ CD25^− T cell populations. For experiments with carboxyfluorescein diacetate succinimidyl ester (CFSE)-labeled cells, näive CD4^+ T cells or Treg cells ([…]) were stained with CFSE (4.5 uM) from Molecular Probes at 37° C. for 15 min. After several washes, the labeled cells were cultured in RPMI 1640 containing 10% human AB serum and IL-2 (300 IU/ml). To determine suppression of cell division by Treg cells, unlabeled Treg cells were added to CFSE-labeled näive T cells at an 1:1 ratio in 24-well plates precoated with OKT3 (2 ug/ml) in the presence or absence of CpG-A or Poly-G2 (3 ug/ml). After 3 days in culture, the cells were analyzed by FACS gating on the CFSE-labeled cells.
FIG. 5. […] After 3 days of culture, the proliferative profile was determined by FACS analysis. […]

The test system of data set [2] is Treg102 cells. The data set is described as follows: Reversibility of siRNA-transduced Treg102 cells by Poly-G10 (functional proliferation assay). The class given is cell-based, human. An excerpt:
Several siRNA sequences (19 nucleotides) for each gene were selected with use of computer-assisted programs. Oligonucleotides containing a siRNA sequence, 8 nucleotide spacers, and a polyT terminator sequence were annealed and then cloned into the HapI and XhoI sites of GFP-expressing pLentilox3.7 vector using methods well known in the art (See, e.g., D. A. Rubinson et al., Nat. Genet. 33, 401-6 (2003)). siRNA was under the control of a U6 promoter. The following DNA sequences used to construct siRNAs for IRAK4, MyD88, and TLR7, 8 and 9, were effective in silencing their corresponding genes:
5×10^6 293T cells were pre-seeded onto 100-mm dishes and transfected with 12 μg siRNA lentiviral DNA, 12 μg VSV-G plasmid DNA and 12 μg packaging viral CMV delta 8.9 plasmid, using Lipofectamine 2000. After the addition of fresh culture medium 8 h later, the cells were cultured for an additional 2-3 days. Viral supernatants were harvested, passed through a […] filter and concentrated by ultracentrifugation at 20,000 rpm for 2 h. Virus pellets were resuspended in a small volume of medium, and viral titers were determined by infecting 293T cells with serially diluted doses of virus. For transduction of T cells, T cells (2×106 ) were first activated by OKT3 (2 ug/ml)-coated plates and then were mixed with the concentrated lentiviral supernatant with a multiplicity of infection (MOI) of 10-15 in a total volume of 0.5 ml T cell medium containing 8 ug/ml polybrene (Sigma), and then span at 1000×g for 1 h at room temperature. After 16 h of incubation, 0.5 ml of T cell medium was added to each well. Forty-eight hours later, the T cells were transduced again with the same concentrated viral supernatants. Transduction efficiency was analyzed at 3 or 4 days post-transduction, and the cells were sorted into GFP^+and GFP^−cells with a FACS ARIA sorter. The sorted cells (GFP^+and GFP^−) and untransduced Treg cells were then used to determine their reversibility by Poly-G10 in functional proliferation assays.
The current model of TLR signaling pathways predicts that TLR1, 2, 5, 6, 7, 8, and 9 use MyD88 as their sole receptor-proximal adaptor to transduce signals, TLR3 uses interferon-regulated factor 3 (IRF3) for the production of IFN-α in response to pathogen recognition, while TLR4 is linked to both MyD88-dependent and MyD88 independent pathways. Since MyD88 is important for the signaling activities of most TLRs, it stood to reason that its dependent pathway, in which IRKA4 transduces signals from MyD88 to TRAF6 and other downstream molecules, would likely be involved in TLR signaling initiated by guanosine-containing oligonucleotides. Four or five eGFP-expressing lentiviral constructs containing U6-driven siRNAs were made for each gene and were tested their abilities to specifically knock down their respective target proteins. In FIG. 3A, the efficiency of knock down by siRNA was determined by Western blot analysis. Both IRAK4 and MyD88 were tagged with a FLAG epitope, and detected by anti-FLAG antibody (M2). 293T cells transfected with either FLAG-IRAK4 or FLAG-MyD88 served as positive controls, while nontranseffected 293T cells were negative controls. The amount of β-actin in each lane served as loading controls for the samples. […] Treg102 cells were next transduced with an IRAK4 siRNAl lentivirus. After 3 days in culture, they were sorted by FACS into transduced (GFP^+) and untransduced (GFP^− control) Treg cell populations (FIG. 3B). The purity of GFP^+ and GFP^− cells was confirmed by FACS analysis. […] This notion was further supported by experiments in which Treg102 cells were transduced with MyD88 siRNAs. […] For FIG. 3C, uninfected parental Treg108 cells and Poly-T10 oligonucleotides served as controls. Data are presented as means±SD and represent results from three independent experiments. Similar results were obtained with Treg164 cell lines. […]

The values below come from patent US20090209620A1, “Direct Reversal Of The Suppressive Function Of CD4+Regulatory T Cells Via Toll-Like Receptor 8 Signaling” (priority 2005, published 2009).

In the oligonucleotide strings, read from the 5' end, every base follows the letter of its sugar. An asterisk marks phosphorothioate; unmarked linkages are phosphodiester. Other units and linkages are bracketed, terminal groups are in braces. A string of capitals states the bases alone. d = 2'-deoxy (DNA)

On to G* GGGGACGATCGTCG* G*G*G*G*G [CpG-A], for which, in data set [1] (presence or absence of CpG-A 3 μg/ml), the “number of Treg cells (cytotoxicity)” value is reported as “did not change”. Besides, in data set [1] (with naive T cells, OKT3, IL-2, CpG-A 3 μg/ml), the “proliferation of CFSE-labeled Treg cells” value is on record as “do not proliferate”.
For the substance “Poly-G10: guanosine oligonucleotide with protected phosphorothioate backbone (DNA dG*dG*dG*dG*dG*dG*dG*dG*dG*dG)”, the “reversibility of suppression by Poly-G10” value was “could not be reversed” in data set [2] (IRAK4 siRNA-transduced (GFP+) Treg102 cells); “completely lost their ability to respond” in data set [2] (MyD88 siRNA-transduced (GFP+) Treg102 cells); “retained the same reversible suppressive function” in data set [2] (TLR7 siRNA or TLR9 siRNA-transduced (GFP+) Treg cells); “could not be reversed” in data set [2] (TLR8 siRNA-transduced (GFP+) Treg102 cells); “Neither the suppressive activity nor the reversibility of the suppression was affected” in data set [2] (Treg cells transduced with control siRNA virus); “reversed as readily as the parental Treg102 cells” in data set [2] (untransduced (GFP-) Treg102 cells).
